{
  "source": "patent US6100247A",
  "about": "“Method of treating diabetic neuropathy” (BioNumerik Pharmaceuticals, Inc., priority 1999, dated 2000)",
  "key": {"humans": {"tested_on": "humans", "details": "in vivo; cited from earlier work"}, "[1]": {"target": "T1, aldose reductase (human recombinant, expressed in SF 9 cells) (Homo sapiens, UniProt P15121)", "T1 construct": "host or cells: SF 9 cells", "experiment": "Aldose reductase assay, reduction of glucose to sorbitol (NADPH oxidation, absorbance at 340 nm)", "type": "biochemical", "details": "Lineweaver Burk plots nearly parallel; glucose and glyceraldehyde substrates", "protocol": "Aldose reductase assays were as described in Nishimura C., Yamaoka T., Mizutani M., Yamashita K., Akera T., Tanimoto T., Purification And Characterization Of The Recombinant Human Aldose Reductase Expressed In Baculovirus System, Biochem. Biophys. Acta, Jun. 24, 1991; 1078(2):171-8.\nBriefly, Dimesna (0-20 μM) was incubated at 37° C. with aldose reductase (0.0016 units, human recombinant, expressed in SF 9 cells) and NADPH (0.15 mM) in sodium phosphate buffer (100 mM, pH 6.2). To initiate assays, glucose (10-150 mM) was added to reactions and the decrease in absorbance at 340 nm (oxidation of NADPH) was monitored. Assays were run in duplicate or triplicate. Slopes were calculated using Varian-Cary software package 2.0 and averaged. In all cases errors were 4% or less. Lineweaver Burk analysis (Enzyme Kinetics, version 1.61) was used to calculate inhibition constants."}, "dogs": {"tested_on": "dogs", "details": "dog, in vivo; cited from earlier work"}, "mice": {"tested_on": "mice", "details": "mouse, in vivo; cited from earlier work"}},
  "data": [
    {"compound": "O=S(=O)([O-])CCSSCCS(=O)(=O)[O-].[Na+].[Na+]", "values": [
      {"measurement": "Adverse effects after administration to humans", "setting": "humans", "value": "no adverse effects"},
      {"measurement": "Mode of inhibition of the aldose reductase reaction", "setting": "[1]", "value": "uncompetitive inhibition"},
      {"measurement": "Adverse effects after intravenous administration", "setting": "dogs", "value": "no adverse effects"},
      {"measurement": "Adverse effects after intravenous administration", "setting": "mice", "value": "no adverse effects"}
    ]}
  ]
}
